Literature values in PMC11053612, “Membrane-Fusing Vehicles for Re-Sensitizing Transporter-Mediated Multiple-Drug Resistance in Cancer” (Pharmaceutics, 2024).

How the values were obtained:
Conditions in all cases: ref [23],[24],[25],[26]
[1] = test system: ABCG2; design: method as in PMID 23470221, PMID 7999426, PMID 11309820, PMID 14973080; key: +: whether they are actively transported or not; −: whether they are actively transported or not
[2] = molecular target: T1, ABCC1 (Homo sapiens, UniProt P33527); design: method as in PMID 23470221, PMID 7999426, PMID 11309820, PMID 14973080; key: +: whether they are actively transported or not; −: whether they are actively transported or not
T1 construct: expressed in transfected cells; host or cells: MDCK II MRP1 (canine kidney MDCK II, transfected; gift of Dr. A. Schinkel, Netherlands Cancer Institute)
T1 sequence (P33527 whole entry): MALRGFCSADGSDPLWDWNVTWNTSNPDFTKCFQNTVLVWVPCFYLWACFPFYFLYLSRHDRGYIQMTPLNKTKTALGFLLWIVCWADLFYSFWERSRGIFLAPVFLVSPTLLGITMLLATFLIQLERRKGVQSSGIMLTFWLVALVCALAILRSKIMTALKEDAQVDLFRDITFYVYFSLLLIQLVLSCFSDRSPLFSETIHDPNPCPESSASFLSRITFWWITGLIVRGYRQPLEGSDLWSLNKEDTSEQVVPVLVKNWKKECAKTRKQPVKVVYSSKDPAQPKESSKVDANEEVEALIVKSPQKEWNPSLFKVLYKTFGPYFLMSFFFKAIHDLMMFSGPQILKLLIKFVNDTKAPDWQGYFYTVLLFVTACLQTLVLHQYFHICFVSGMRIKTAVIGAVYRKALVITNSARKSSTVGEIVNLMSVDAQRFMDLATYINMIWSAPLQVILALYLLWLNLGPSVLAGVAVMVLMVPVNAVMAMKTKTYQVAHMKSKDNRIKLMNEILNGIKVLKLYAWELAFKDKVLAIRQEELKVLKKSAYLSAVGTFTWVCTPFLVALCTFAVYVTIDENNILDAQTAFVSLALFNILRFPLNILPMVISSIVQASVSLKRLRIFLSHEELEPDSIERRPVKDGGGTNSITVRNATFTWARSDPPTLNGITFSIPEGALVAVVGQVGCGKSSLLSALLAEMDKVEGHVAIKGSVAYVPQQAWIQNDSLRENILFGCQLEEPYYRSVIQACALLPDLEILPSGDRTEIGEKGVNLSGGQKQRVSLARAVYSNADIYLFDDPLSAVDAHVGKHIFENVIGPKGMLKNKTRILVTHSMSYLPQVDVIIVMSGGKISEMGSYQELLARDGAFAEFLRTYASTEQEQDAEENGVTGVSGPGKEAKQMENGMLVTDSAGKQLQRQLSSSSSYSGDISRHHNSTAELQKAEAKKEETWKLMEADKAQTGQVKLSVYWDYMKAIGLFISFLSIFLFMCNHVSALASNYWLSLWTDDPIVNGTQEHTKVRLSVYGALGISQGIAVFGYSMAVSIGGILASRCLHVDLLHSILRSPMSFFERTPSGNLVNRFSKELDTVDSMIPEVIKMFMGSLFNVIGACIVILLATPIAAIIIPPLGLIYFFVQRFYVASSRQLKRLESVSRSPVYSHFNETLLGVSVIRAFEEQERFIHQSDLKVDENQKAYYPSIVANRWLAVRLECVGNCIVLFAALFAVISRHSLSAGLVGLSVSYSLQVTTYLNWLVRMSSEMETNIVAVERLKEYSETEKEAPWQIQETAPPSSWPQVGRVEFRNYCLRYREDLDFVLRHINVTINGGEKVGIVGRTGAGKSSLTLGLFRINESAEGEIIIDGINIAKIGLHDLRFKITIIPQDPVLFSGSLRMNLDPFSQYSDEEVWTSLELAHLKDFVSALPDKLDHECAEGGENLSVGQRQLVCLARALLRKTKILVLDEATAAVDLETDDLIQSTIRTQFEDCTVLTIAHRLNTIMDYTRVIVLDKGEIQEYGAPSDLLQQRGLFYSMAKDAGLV

[3] = molecular target: T2, ABCB1 (Homo sapiens, UniProt P08183); design: method as in PMID 23470221, PMID 7999426, PMID 11309820, PMID 14973080; key: +: whether they are actively transported or not
T2 construct: expressed in transfected cells; host or cells: MDCK II MDR1 (canine kidney MDCK II, transfected; gift of Dr. A. Schinkel, Netherlands Cancer Institute)
T2 sequence (P08183 whole entry): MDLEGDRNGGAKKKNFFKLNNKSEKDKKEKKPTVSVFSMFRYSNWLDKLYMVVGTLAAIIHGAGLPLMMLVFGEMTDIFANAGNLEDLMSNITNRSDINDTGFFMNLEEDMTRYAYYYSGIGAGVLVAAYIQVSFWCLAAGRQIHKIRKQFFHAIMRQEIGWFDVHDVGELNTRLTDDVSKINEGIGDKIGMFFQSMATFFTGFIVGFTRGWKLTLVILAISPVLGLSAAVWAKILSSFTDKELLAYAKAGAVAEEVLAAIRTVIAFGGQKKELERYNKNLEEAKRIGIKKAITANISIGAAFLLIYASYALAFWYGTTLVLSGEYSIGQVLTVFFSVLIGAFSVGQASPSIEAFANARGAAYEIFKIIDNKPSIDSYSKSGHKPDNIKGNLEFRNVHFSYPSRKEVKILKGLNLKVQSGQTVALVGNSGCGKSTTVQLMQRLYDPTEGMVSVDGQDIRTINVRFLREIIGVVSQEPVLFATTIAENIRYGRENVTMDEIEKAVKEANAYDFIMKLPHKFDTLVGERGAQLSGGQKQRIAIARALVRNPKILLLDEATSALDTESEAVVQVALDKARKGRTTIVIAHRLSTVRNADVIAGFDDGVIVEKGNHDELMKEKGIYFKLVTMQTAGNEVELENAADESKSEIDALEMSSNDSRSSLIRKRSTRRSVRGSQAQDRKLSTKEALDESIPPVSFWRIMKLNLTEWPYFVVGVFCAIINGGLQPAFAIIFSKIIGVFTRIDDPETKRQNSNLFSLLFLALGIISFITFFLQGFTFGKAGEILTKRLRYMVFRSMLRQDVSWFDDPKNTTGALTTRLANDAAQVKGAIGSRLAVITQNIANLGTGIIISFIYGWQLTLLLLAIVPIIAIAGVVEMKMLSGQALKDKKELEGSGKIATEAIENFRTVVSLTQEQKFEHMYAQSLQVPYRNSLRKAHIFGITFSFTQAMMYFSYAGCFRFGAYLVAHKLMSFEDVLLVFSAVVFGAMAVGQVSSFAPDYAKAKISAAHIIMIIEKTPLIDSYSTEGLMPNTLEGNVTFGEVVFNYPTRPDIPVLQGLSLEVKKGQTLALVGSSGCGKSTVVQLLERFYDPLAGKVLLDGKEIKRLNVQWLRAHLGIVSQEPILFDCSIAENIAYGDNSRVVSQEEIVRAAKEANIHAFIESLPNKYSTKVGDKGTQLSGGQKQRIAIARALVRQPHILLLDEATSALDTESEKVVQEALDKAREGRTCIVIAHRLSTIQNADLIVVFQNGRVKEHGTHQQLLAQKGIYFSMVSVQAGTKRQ

SMILES	actively transported by ABCG2 [1]	actively transported by ABCC1 [2]	actively transported by ABCB1 [3]
O=C(O)CN(CC(=O)O)Cc1cc2c(cc1O)Oc1cc(O)c(CN(CC(=O)O)CC(=O)O)cc1C21OC(=O)c2ccccc21 [Calcein]	−	+	+
CCOc1ccc(-c2nc3ccc(-c4nc5ccc(N6CCN(C)CC6)cc5[nH]4)cc3[nH]2)cc1 [Hoechst 33324]	+	−	
C=Cc1c(C)c2cc3nc(c4c5[nH]c(cc6nc(cc1[nH]2)C(C)=C6CC)c(C)c5C(=O)[C@@H]4C(=O)OC)[C@@H](CCC(=O)O)[C@@H]3C [Pheophorbide A]	+	−	
COC(=O)c1ccccc1-c1c2ccc(=N)cc-2oc2cc(N)ccc12 [Rhodamine 123]	−	+	+
